The experiment deals with influenza virus genome replication and transcription in yeast cells. It counts as cell-based.

From US20100304375A1, “Influenza Virus Genome Replication and Transcription System in Yeast Cells” (UNIVERSITY OF TSUKUBA, priority 2007, published 2010) come the findings set out here.

Regarding `C[C@@H]1C[C@@H]([C@H](O)CC2CC(=O)NC(=O)C2)C(=O)[C@@H](C)C1` [cycloheximide], the “synthesis level of viral RNAs” value is recorded as “markedly reduced”.
